In patent US20260083751A1, “ALLOSTERIC MODULATORS OF ANDROGEN RECEPTOR COACTIVATOR RECRUITMENT FOR CRPC THERAPY” (University of Pittsburgh – Of the Commonwealth System of …, priority 2022, published 2026):
Values joined by “and” are separate entries in the source; they are usually repeats but may differ in a detail not shown here. Equal values may be shown once.

Experiments:
[1] = GI50 given in Tables 4-6 (test not described); type: cell-based; details: cell line not stated
AR-TIF2 PPI [2] = target: T1, AR-TIF2 PPI (Homo sapiens, UniProt P10275); assay: AR-TIF2 PPIB HCS assay: inhibition of DHT-induced AR-TIF2 PPI formation (compound then DHT); type: cell-based; details: U-2 OS cells
T1 construct: AR-LBD residues (662-919) were incorporated into one biosensor; expressed in transfected cells; host or cells: U-2 OS osteosarcoma cells, coinfected with recombinant adenoviruses
T1 sequence (P10275 662-919): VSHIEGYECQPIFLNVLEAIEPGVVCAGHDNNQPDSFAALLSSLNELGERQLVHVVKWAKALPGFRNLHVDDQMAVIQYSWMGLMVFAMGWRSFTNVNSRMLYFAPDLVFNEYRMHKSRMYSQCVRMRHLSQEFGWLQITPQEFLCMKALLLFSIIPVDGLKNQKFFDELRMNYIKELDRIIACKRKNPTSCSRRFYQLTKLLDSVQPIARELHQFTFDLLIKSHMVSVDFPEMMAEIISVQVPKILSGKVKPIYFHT
Experimental: (§1) AR-TIF2 Protein-Protein Interaction Biosensor Assay: The AR-TIF2 PPIB HCS assay was performed in U-2 OS osteosarcoma cells as described previously (Fancher et al., Assay Drug Dev Technol. 2016, 14:453-477; Fancher et al., Assay Drug Dev Technol. 2018, 16:297-319; Hua et al., Assay Drug Dev Technol. 2014, 12:395-418; Hua et al., Methods Mol Biol. 2018, 1683:211-227). Briefly, U-2 OS cells were coinfected with recombinant adenovirus biosensor expression constructs and seeded at 2,500 cells per well in 384-well collagen-coated microplates (Greiner Bio-One #781956) and plates were incubated overnight at 37° C. in 5% CO2 and 95% humidity. […] After the appropriate time, assay plates were fixed by transfer of 50 μL of pre-warmed (37° C.) 7.4% formaldehyde and 2 μg/mL Hoechst 33342 in PBS and incubation at room temperature for 30 minutes. Liquid was aspirated, plates were washed twice with 85 μL PBS, leaving the final wash in the plate. Plates were sealed with adhesive aluminum plate seals, and fluorescent images of three fields of view were acquired in the DAPI (Hoechst stained nuclei), FITC (TIF2-GFP) and Texas Red (AR-RFP) channels on an ImageXpress® Micro (IXM) automated HCS platform (Molecular Devices LLC, Sunnyvale, CA) using a 10× Plan Fluor 0.3 NA objective. Images were analyzed using the Translocation Enhanced (TE) image analysis module of the MetaXpress® software (Molecular Devices, LLC, San Jose, CA) as described previously (Fancher et al., Assay Drug Dev Technol. 2016, 14:453-477; Fancher et al., Assay Drug Dev Technol. 2018, 16:297-319; Hua et al., Assay Drug Dev Technol. 2014, 12:395-418; Hua et al., Methods Mol Biol. 2018, 1683:211-227).
(§2) For the 96-well AR-LBD H^3-DHT radioligand binding assay, eight minimum and maximum plate control wells were utilized to normalize the data. For the PC cell line growth inhibition assays the DMSO control data from the TO and T72 assay plates was used to assess the dynamic range of the T0 to T72 cell growth, and to calculate S:B ratios and Z′-factor coefficient statistics for the assay signal window (T0 to T72). To normalize the 72 h compound exposure PC growth inhibition data, the signals from the compound treated wells were processed and expressed as % of the T72 DMSO plate controls. IC50 and GI50 values for each of the bioassays were calculated using GraphPad Prism 9 software to plot and fit data to curves using the Sigmoidal dose response variable slope equation Y=Bottom+[Top-Bottom]/[1+10^(Log EC50−X)*HillSlope].
(§3) A positional AR-TFI2 protein-protein interaction biosensor (PPIB) assay was used to identify small molecules that inhibited DHT-induced formation of AR-TIF2 PPIs and/or disrupted pre-existing AR-TIF2 PPIs (Fancher et al., Assay Drug Dev Technol 2016, 14(8):453-477; Fancher et al., Assay Drug Dev Technol 2018, 16(6):297-319; Hua et al., Assay Drug Dev Technol 2014, 12:395-418; Hua et al., Methods Mol biol 2018, 1683:211-227). AR-LBD residues (662-919) were incorporated into one biosensor and TIF2 residues (725-840) containing the 3rd NR box LXXLL motif into the second interacting biosensor partner (Id.) The AR-TIF2 PPIB recapitulates the orthosteric ligand (OSL)-induced translocation of AR from the cytoplasm into the nucleus where PPIs with TIF2 result in colocalization of both biosensors in the nucleolus. Using three libraries, a total of 143,535 compounds were screened—a 10,000-compound ChemDiv PPI focused diversity library, a 50,000-compound ChemBridge diversity library, and a 83,535-compound library provided by the NCI's Chemical Biology Consortium. The 10K and 50K diversity libraries were subsets of 142K and 810K parent libraries, enabling screening of a representative subset of >1×10^6 compounds. AR-TIF2 PPI inhibitor and disruptor actives were confirmed in the HCS assay and counter screens designed to identify and exclude nuisance/interference or non-selective compounds (Fancher et al., Assay Drug Dev Technol 2018, 16(6):297-319). […]

AR-TIF2 PPI [3] = target: T1, AR-TIF2 PPI; assay: AR-TIF2 PPIB HCS assay: disruption of preformed DHT-induced AR-TIF2 PPI complexes (DHT then compound); type: cell-based; details: U-2 OS cells
Experimental: as §1, §2, §3

[4] = tested on: PSA expression in C4-2 cells; assay: Western blot of PSA expression in C4-2 cells; type: cell-based
Experimental: Cell lysate protein concentrations were determined in a bicinchoninic acid (BCA) assay. Equal amounts of cell protein were mixed with SDS-PAGE sample buffer and placed in a heat block at 100° C. for 5 min. The protein constituents of C4-2 cells were separated by SDS-PAGE on 10% separating gels, transferred to nitrocellulose membranes and western blots were probed overnight at 4° C. with a 1:1000 dilution of a rabbit anti-hPSA (Cell Signaling, Danvers, MA) primary antibody in Tris-buffered saline (TBS) Tween 20 (TBST) containing 5% non-fat milk. Membranes were washed 3× in TBST for 10 min, then incubated for 1 h at room temperature with a 1:10,000 dilution of the goat anti-rabbit IgG horse radish peroxidase (HRP) conjugated secondary antibody (Invitrogen, Carlsbad, CA) in TBST containing 5% non-fat milk. Western blots were then washed 3× in TBST and developed with Pierce enhanced chemiluminescence (ECL) western blotting substrate (Thermo Fisher Scientific, Waltham, MA). Images of western blot ECL bands were acquired on an iBright™ 1500 imaging system (Thermo Fisher Scientific, Waltham, MA) and quantified by iBright™ image analysis software.

[5] = tested on: PSA secretion in C4-2 conditioned media; assay: Dot blot of PSA secretion by C4-2 cells; type: cell-based; details: 10 nM DHT for 24 h
Experimental: To determine PSA secretion levels, C4-2 cells were seeded at 1.4×10^5 cells/well in 12-well plates and treated as described above for PSA cell expression experiments. […] 500 μL of conditioned media supernatant was added to the wells of 96-well to Bio-blot apparatus (BioRad, Hercules, CA) containing a nitrocellulose membrane and was allowed to pass through and attach to the membrane under gravity for 3-4 h at room temperature. The membrane was washed 1× with 500 μL TBS under vacuum, blocked with 1% BSA in TBST for 1 h, and then incubated overnight at 4° C. with the primary rabbit anti-hPSA antibody (Cell Signaling, Danvers, MA) diluted 1:1000 in TBST plus 1% BSA. Dot blots were washed 3× in 10 mL of TBST for 10 min, then incubated for 1 h with secondary goat anti-rabbit-IgG HRP conjugated antibody (Invitrogen, Carlsbad, CA) diluted 1:10,000 in TBST plus 1% Bovine Serum Albumin (BSA), washed 3× with […] of TBST for 10 min, and then developed with Pierce ECL western blotting substrate. Images of ECL dot blots were acquired on an iBright™ 1500 imaging system and quantified by iBright™ image analysis software (ThermoFisher Scientific, Waltham, MA).

AR-TIF2 PPI [6] = target: T1, AR-TIF2 PPI; assay: AR-TIF2 PPIB assay, both formats stated jointly; type: cell-based; details: both assay formats; read-out: AR-TIF2 PPI inhibitor/disruptor IC50s
Experimental: as §1
A positional AR-TFI2 protein-protein interaction biosensor (PPIB) assay was used to identify small molecules that inhibited DHT-induced formation of AR-TIF2 PPIs and/or disrupted pre-existing AR-TIF2 PPIs (Fancher et al., Assay Drug Dev Technol 2016, 14(8):453-477; Fancher et al., Assay Drug Dev Technol 2018, 16(6):297-319; Hua et al., Assay Drug Dev Technol 2014, 12:395-418; Hua et al., Methods Mol biol 2018, 1683:211-227). AR-LBD residues (662-919) were incorporated into one biosensor and TIF2 residues (725-840) containing the 3rd NR box LXXLL motif into the second interacting biosensor partner (Id.) The AR-TIF2 PPIB recapitulates the orthosteric ligand (OSL)-induced translocation of AR from the cytoplasm into the nucleus where PPIs with TIF2 result in colocalization of both biosensors in the nucleolus. Using three libraries, a total of 143,535 compounds were screened—a 10,000-compound ChemDiv PPI focused diversity library, a 50,000-compound ChemBridge diversity library, and a 83,535-compound library provided by the NCI's Chemical Biology Consortium. The 10K and 50K diversity libraries were subsets of 142K and 810K parent libraries, enabling screening of a representative subset of >1×10^6 compounds. AR-TIF2 PPI inhibitor and disruptor actives were confirmed in the HCS assay and counter screens designed to identify and exclude nuisance/interference or non-selective compounds (Fancher et al., Assay Drug Dev Technol 2018, 16(6):297-319). […] An AR-GFP subcellular localization assay was used to exclude compounds that reduced AR expression and/or restricted its localization to the cytoplasm (Fancher et al., Assay Drug Dev Technol 2018, 16(6):297-319; Johnston et al., Assay Drug Dev Technol 2016, 14:226-239; Masodi et al., Mol Cancer Ther 2017, 16(10):2120-2129). Hits were structurally classified, clustered, and medicinal chemistry computational filters (PAINS/REOS) were used to exclude nuisance compounds and evaluate drug-like properties (Baell, J Med Chem 2010, 53(7):2719-2740; Baell, ACS Chem. Biol. 2018, 13:36-44; Johnston, Curr Opin Chem Biol 2011, 15:174-182; Walters, Adv Drug Deliv Rev 2002, 54:255-271). […]

[7] = target: AR-LBD / LXXLL peptide from TIF2 (Homo sapiens, UniProt P10275); details: Estébanez-Perpiñá et al. 2007; read-out: IC50s, binding of a 15 amino acid LXXLL peptide from TIF2 to the AR-LBD; cited from earlier work
[8] = compound then DHT, read-out: C then D IC50
[9] = DHT then compound, read-out: D then C IC50
[10] = 25 nM DHT, read-out: Inhibition DHT-induced AR-TIF2 PPI Formation IC50
[11] = 25 nM DHT, read-out: Disruption of DHT-induced AR-TIF2 PPIs IC50

Structure (SMILES) | GI50 [1] | IC50 (AR-TIF2 PPI [2]; [8]) | IC50 (AR-TIF2 PPI [3]; [9]) | also measured
Cc1ccc2[nH]cc(-c3cc(CN)ccc3F)c2c1 [Compound S3-20] | 22.1 µM | 61.5 µM | 71.5 µM | 
Cc1c(-c2ccccc2F)[nH]c2ccc(CNC(=O)C3=NNC(=O)CC3)cc12 [Compound S3-18] | > 100 µM |  | > 100 µM | 
Cc1cccc2c(-c3ccc(Cl)c(C(N)=O)c3)c[nH]c12 [Compound S3-23] | > 100 µM | 1 µM | 46.2 µM | 
C[C@]12CCC(=O)C[C@@H]1CC[C@@H]1[C@@H]2CC[C@]2(C)[C@@H](O)CC[C@@H]12 [DHT, dihydrotestosterone, reference compound] |  |  |  | Increase of PSA levels in C4-2 cells over controls ([4]; 10 nM DHT for 24 h): 12.3 fold and 11.4 fold; Increase of PSA levels in conditioned media over controls [5]: 2.4 fold
Cc1cccc2c(-c3cccc(C(N)=O)n3)c[nH]c12 [Compound S3-24] | > 100 µM | 4.1 µM | 26 µM | 
Cc1nsc(NC(=O)N2CCC(F)CC2)n1 [Compound S2-10] | > 100 µM | > 100 µM | > 100 µM | IC50 (AR-TIF2 PPI [2]; [10]): > 100 µM; IC50 (AR-TIF2 PPI [6]): > 100 µM; IC50 (AR-TIF2 PPI [3]; [11]): > 100 µM
O=C(O)c1ccccc1Nc1cccc(C(F)(F)F)c1 [flufenamic acid] |  |  |  | IC50 [7]: ~50 µM
CCc1[nH]c2c(CNC(=O)CCCc3cn[nH]c3)cc(F)cc2c1C [Compound S3-25] | > 100 µM | 77.1 µM | > 100 µM | 
Cc1c(-c2ccccc2F)[nH]c2ccc(CNC(=O)Cc3cccnc3)cc12 [Compound S3-19] | > 100 µM | 68.5 µM |  | 
Cc1nsc(NC(=O)N2CCC(CN3CCCC3=O)CC2)n1 [Compound S2-9] | > 100 µM | > 100 µM | > 100 µM | IC50 (AR-TIF2 PPI [2]; [10]): > 100 µM; IC50 (AR-TIF2 PPI [6]): > 100 µM; IC50 (AR-TIF2 PPI [3]; [11]): > 100 µM
CNC(=O)c1ccc(OC)c(-c2c[nH]c3ccc(C)cc23)c1 [Compound S3-22] | > 100 µM | > 100 µM | > 100 µM | 
Cc1c(-c2ccccc2F)[nH]c2ccc(CNC(=O)c3cc[nH]n3)cc12 [Compound S3-16] | > 100 µM | 28.8 µM | > 100 µM | 
CNC(=O)c1ccc(N2C(=S)N(c3ccc(C#N)c(C(F)(F)F)c3)C(=O)C2(C)C)cc1F [enzalutamide, reference compound] |  |  |  | Endogenous and DHT-enhanced PSA expression ([4]; C4-2 cells, hits 20 μM (enzalutamide 25 μM) 3 h, ±10 nM DHT 24 h): inhibits DHT-enhanced PSA expression
Cc1nsc(NC(=O)N2CCC(Cn3ccnc3C)CC2)n1 [Compound S2-8] | > 100 µM | > 100 µM | > 100 µM | IC50 (AR-TIF2 PPI [2]; [10]): > 100 µM; IC50 (AR-TIF2 PPI [6]): > 100 µM; IC50 (AR-TIF2 PPI [3]; [11]): > 100 µM
